Measurements published in patent US7247611B2, “Compositions and methods for promoting internalization and degradation of urokinase-type plasminogen activator” (The Trustees of the University of Pennsylvania, priority 1997, dated 2007).
“Also recorded” adds a separate entry of the source.

Key:
[1] = system: LM-TK^− cells (α2MR^+/LRP, uPAR^−); assay: Ligand binding assay: binding of 125I-labeled scuPA, tcuPA and their suPAR complexes to LM-TK^− cells; format: cell-based; details: for promotion of scuPA binding to LM-TK^− cells: 1B
Method: Briefly, LM-TK^− cells were suspended in DMEM (GIBCO, Grand Island, N.Y.) containing 10% (v/v) fetal calf serum and were grown to confluence at 37° C. overnight in 96-well Falcon™ multiwell tissue culture dishes (Becton Dickinson, Lincoln Park, N.J.). The cells were chilled for one hour on ice and were washed twice with chilled binding buffer. ^125I-labeled ligands, with or without 50-fold molar excess of non-labeled ligands, were added to the cells in the presence or absence of 0-300 micromolar peptide, and the cell cultures were incubated for two hours at 4° C. The cells were washed four times with binding buffer, solubilized in 0.1 N NaOH, and the cell extract was assessed for radioactivity. […] Assays were repeated at least three times, and data presented herein represent the mean and standard deviation.

PAI-1 = target: T1, PAI-1 (Homo sapiens, UniProt P05121); assay: Assessment of plasminogen activator activity (inhibition of PAI-1 activity, tcuPA as substrate of PAI-1); format: biochemical; details: 5 nanomolar tcuPA, 200 micromolar peptide, 25 nanomolar PAI-1; FIG. 4
T1 construct: purchased American Diagnostica, Inc. (Greenwich, Conn.)
Method: A solution comprising 5 nanomolar tcuPA, 0 or 200 micromolar peptide EEIIMD (SEQ ID NO: 3), and 0 or 200 micromolar peptide REIIMD (SEQ ID NO: 4) was incubated for thirty minutes. The solution was then added to a reaction mixture comprising 25 nanomolar PAI-1, 50 nanomolar Glu-plasminogen, and 50 micromolar chromogenic substrate, and the optical density of the mixture at 405 nanometers was measured continuously, as described (Higazi et al., 1996, Blood 87:3545-3549).

purified α2MR/LRP = assay: Solid phase binding assay of 125I-labeled ligands to immobilized purified α2MR/LRP
Method: To measure the binding of labeled ligands to α2MR/LRP, a 96-well microtiter plate was incubated with 3 micrograms per milliliter purified α2MR/LRP or with 3 micrograms per milliliter BSA in TBS containing 4 millimolar Ca^2+ overnight at 4° C. The buffer was removed, and the non-reacted sites on the plate were blocked using a blocking solution comprising TBS, 4 millimolar Ca^2+, 0.05% (v/v) Tween-20, and 3% (w/v) BSA. The wells of the plate were filled with the blocking solution and incubated for one hour at 4° C. Next, the blocking solution was removed, each well was filled with a solution comprising blocking solution and 0 or 200 nanomolar rRAP, and the plate was incubated at 4° C. for another hour. Binding of ^125I-labeled ligands to immobilized α2MR/LRP was determined as described (Higazi et al., 1996, Blood 88:542-551; Nykjaer et al., 1993, J. Biol. Chem. 268:15048-15055).

LM-TK^− cells = assay: Internalization and degradation of 125I-scuPA by LM-TK^− cells; format: cell-based
Method: LM-TK^− cells were grown overnight at 37° C. to confluence in 48-well Falcon™ Multiwell tissue culture dishes (Becton Dickinson, Lincoln Park, N.J.). Cells were prechilled on ice for one hour, washed twice with a buffer comprising TBS, 4 millimolar Ca^2+, and 3% (w/v) BSA, and incubated for one hour at room temperature with the same buffer or with buffer supplemented with either 400 nanomolar rRAP or 100 micrograms per milliliter IgG anti-α2MR/LRP. The buffer was removed, ^125I -scuPA was added to the cells, and the cells were incubated for two hours at 4° C. in the presence of 0-300 micromolar peptide, 0 or 400 nanomolar rRAP, and 0 or 100 micrograms per milliliter anti-α2MR/LRP. Unbound ligand was removed and cells were washed five times with the buffer. DMEM comprising 4 millimolar Ca^2+, 0 or 400 nanomolar rRAP, and 0 or 100 micrograms per milliliter anti-α2MR/LRP was added to the cells, and the cells were incubated for eighteen hours at 37° C. […] Briefly, to measure internalization, cells were washed twice with the buffer, a solution comprising 50 millimolar glycine 150 millimolar NaCl at pH 3.0 was added to the cells, and the cells were incubated for fifteen minutes at 4° C. to dissociate cell surface-bound ligands. […] Radioactivity in the cell extract was assessed.

scuPA-uPAR complex = scuPA-uPAR complex (Homo sapiens, UniProt P00749); assay: scuPA-uPAR complex formation; format: binding

REIIMD [hexapeptide, amino terminal Glu of EEIIMD substituted by Arg]
promotion of scuPA binding to LM-TK^− cells ([1]; FIG. 1A): nearly as potent a promoter of scuPA binding to LM-TK^− cells as was peptide EEIIMD

EEIIMR [hexapeptide, carboxyl terminal Asp of EEIIMD substituted by Arg; control peptide]
inhibition of PAI-1 activity (PAI-1): did not inhibit PAI-1 activity
scuPA-binding-promoting activity relative to that of peptide EEIIMD ([1]; LM-TK^− cells, FIG. 1A): approximately 20%

rRAP: recombinant 39 kilodalton α2MR/LRP. (receptor-associated protein), inhibits ligand binding to α2MR/LRP [reference compound]
effect on EEIIMD-promoted binding of scuPA to purified α2MR/LRP (purified α2MR/LRP; 200 nanomolar rRAP, FIG. 5A): inhibited
inhibition of EEIIMD-promoted scuPA internalization and degradation by LM-TK^− cells (LM-TK^− cells; 400 nanomolar rRAP): approximately 70%
inhibition of EEIIMD-promoted binding of scuPA to LM-TK^− cells ([1]; 400 nanomolar rRAP, FIG. 5B): approximately 70%

EEIIMD [hexapeptide homologous with amino acids 350-355 of PAI-1]
effect on scuPA-uPAR complex formation (scuPA-uPAR complex): did not affect
effect on binding of tcuPA to purified α2MR/LRP (purified α2MR/LRP): had no effect
effect on binding of the scuPA-suPAR complex to α2MR/LRP (purified α2MR/LRP): had no effect
effect on binding of scuPA to purified α2MR/LRP (purified α2MR/LRP; FIG. 5A): promoted binding of scuPA to purified α2MR/LRP
inhibition of PAI-1 activity (PAI-1): inhibits PAI-1 activity; also recorded: competitive inhibitor of PAI-1 binding to tcuPA
effect on internalization and degradation of scuPA by LM-TK^− cells (LM-TK^− cells; eighteen hours at 37° C., FIG. 6): promoted both internalization and degradation; also recorded: accelerated the rate of internalization and degradation
effect on binding of tcuPA to LM-TK^− cells [1]: failed to stimulate binding of tcuPA; also recorded: had no effect
promotion of scuPA binding to LM-TK^− cells ([1]; FIG. 1A): promoted binding
peptide concentration giving near-maximal effect on scuPA binding to LM-TK^− cells ([1]; FIG. 1B): approximately 300 micromolar
effect on binding of the scuPA-suPAR complex to LM-TK^− cells ([1]; FIG. 3): minimal increase
effect on binding of the tcuPA-suPAR complex to LM-TK^− cells ([1]; FIG. 3): had no effect
increase in the value of Bmax for scuPA binding to LM-TK^− cells ([1]; presence versus absence of the peptide, two hours at 4° C.): four-fold
EC50 ([1]; read-out: peptide concentration for half maximal stimulation of scuPA binding to LM-TK^− cells, FIG. 1B): ~50 µM
scuPA-binding-promoting effect in the presence of PAI-1 ([1]; scuPA preincubated with PAI-1, FIG. 2): identical to the effect observed in the absence of PAI-1
